Legend:
Assay type in all cases: in vivo
[1] = test system: Alopecurus myosuroides (ALOMY); experiment: Glasshouse herbicidal test, pre- and post-emergence, Alopecurus myosuroides; settings: 250 g/h, evaluated after 13 days, five point scale; for percentage damage caused to the plant, ALOMY POST: post-emergence; for percentage damage caused to the plant, ALOMY PRE: pre-emergence
Description: (§1) Seeds of a variety of test species are sown in standard soil in pots (Lolium perenne (LOLPE), Setaria faberi (SETFA), Alopecurus myosuroides (ALOMY), Echinochloa crus-galli (ECHCG), Avena fatua (AVEFA)). After cultivation for one day (pre-emergence) or after 8 days cultivation (post-emergence) under controlled conditions in a glasshouse (at 24/16° C., day/night; 14 hours light; 65% humidity), the plants are sprayed with an aqueous spray solution derived from the formulation of the technical active ingredient in acetone/water (50:50) solution containing 0.5% Tween 20 (polyoxyethelyene sorbitan monolaurate, CAS RN 9005-64-5). Compounds are applied at […]. The test plants are then grown in a glasshouse under controlled conditions in a glasshouse (at 24/16° C., day/night; 14 hours light; 65% humidity) and watered twice daily. After 13 days for pre and post-emergence, the test is evaluated for the percentage damage caused to the plant. The biological activities are shown in the following table on a five point scale (5=80-100%; 4=60-79%; 3=40-59%; 2=20-39%; 1=0-19%).

[2] = test system: Echinochloa crus-galli (ECHCG); experiment: Glasshouse herbicidal test, pre- and post-emergence, Echinochloa crus-galli; settings: 250 g/h, evaluated after 13 days, five point scale; for percentage damage caused to the plant, ECHCG POST: post-emergence; for percentage damage caused to the plant, ECHCG PRE: pre-emergence
Description: as §1

[3] = test system: Setaria faberi (SETFA); experiment: Glasshouse herbicidal test, pre- and post-emergence, Setaria faberi; settings: 250 g/h, evaluated after 13 days, five point scale; for percentage damage caused to the plant, SETFA POST: post-emergence; for percentage damage caused to the plant, SETFA PRE: pre-emergence
Description: as §1

[4] = test system: Lolium perenne (LOLPE); experiment: Glasshouse herbicidal test, pre- and post-emergence, Lolium perenne; settings: 250 g/h, evaluated after 13 days, five point scale; for percentage damage caused to the plant, LOLPE POST: post-emergence; for percentage damage caused to the plant, LOLPE PRE: pre-emergence
Description: as §1

[5] = test system: Avena fatua (AVEFA); experiment: Glasshouse herbicidal test, pre- and post-emergence, Avena fatua; settings: 250 g/h, evaluated after 13 days, five point scale; for percentage damage caused to the plant, AVEFA POST: post-emergence; for percentage damage caused to the plant, AVEFA PRE: pre-emergence
Description: as §1

CC#Cc1cc(OC)c(C2C(=O)CC3(CCN(OC)CC3)CC2=O)c(OC)c1 [Compound A4]
5 (5=80-100%): percentage damage caused to the plant, ALOMY POST [1] | percentage damage caused to the plant, ALOMY PRE [1] | percentage damage caused to the plant, ECHCG POST [2] | percentage damage caused to the plant, ECHCG PRE [2] | percentage damage caused to the plant, SETFA POST [3] | percentage damage caused to the plant, SETFA PRE [3] | percentage damage caused to the plant, LOLPE POST [4] | percentage damage caused to the plant, LOLPE PRE [4] | percentage damage caused to the plant, AVEFA POST [5] | percentage damage caused to the plant, AVEFA PRE [5]

CC#Cc1cc(C)c(C2C(=O)CC3(CCN(C(=O)C(F)(F)F)CC3)CC2=O)c(C)c1 [Compound A5]
5 (5=80-100%): percentage damage caused to the plant, ALOMY POST [1] | percentage damage caused to the plant, ALOMY PRE [1] | percentage damage caused to the plant, ECHCG POST [2] | percentage damage caused to the plant, ECHCG PRE [2] | percentage damage caused to the plant, SETFA POST [3] | percentage damage caused to the plant, SETFA PRE [3] | percentage damage caused to the plant, LOLPE POST [4] | percentage damage caused to the plant, LOLPE PRE [4] | percentage damage caused to the plant, AVEFA POST [5] | percentage damage caused to the plant, AVEFA PRE [5]

CC#Cc1cc(C)c(C2C(=O)CC3(CCN(C(=O)C(F)F)CC3)CC2=O)c(C)c1 [Compound A6]
5 (5=80-100%): percentage damage caused to the plant, ALOMY POST [1] | percentage damage caused to the plant, ALOMY PRE [1] | percentage damage caused to the plant, ECHCG POST [2] | percentage damage caused to the plant, ECHCG PRE [2] | percentage damage caused to the plant, SETFA POST [3] | percentage damage caused to the plant, SETFA PRE [3] | percentage damage caused to the plant, LOLPE POST [4] | percentage damage caused to the plant, LOLPE PRE [4] | percentage damage caused to the plant, AVEFA POST [5] | percentage damage caused to the plant, AVEFA PRE [5]

CC#Cc1cc(C)c(C2C(=O)CC3(CCN(CC(F)(F)F)CC3)CC2=O)c(C)c1 [Compound A7]
5 (5=80-100%): percentage damage caused to the plant, ALOMY POST [1] | percentage damage caused to the plant, ALOMY PRE [1] | percentage damage caused to the plant, ECHCG POST [2] | percentage damage caused to the plant, ECHCG PRE [2] | percentage damage caused to the plant, SETFA POST [3] | percentage damage caused to the plant, SETFA PRE [3] | percentage damage caused to the plant, LOLPE POST [4] | percentage damage caused to the plant, LOLPE PRE [4] | percentage damage caused to the plant, AVEFA POST [5] | percentage damage caused to the plant, AVEFA PRE [5]

CC#Cc1cc(C)c(C2C(=O)CC3(CCN(OC)CC3)CC2=O)c(C)c1 [Compound A8]
5 (5=80-100%): percentage damage caused to the plant, ALOMY POST [1] | percentage damage caused to the plant, ALOMY PRE [1] | percentage damage caused to the plant, ECHCG POST [2] | percentage damage caused to the plant, ECHCG PRE [2] | percentage damage caused to the plant, SETFA POST [3] | percentage damage caused to the plant, SETFA PRE [3] | percentage damage caused to the plant, LOLPE POST [4] | percentage damage caused to the plant, LOLPE PRE [4] | percentage damage caused to the plant, AVEFA POST [5] | percentage damage caused to the plant, AVEFA PRE [5]

CC#Cc1cc(C)c(C2C(=O)CC3(CCN(C(=O)C(C)C)CC3)CC2=O)c(C)c1 [Compound A11]
5 (5=80-100%): percentage damage caused to the plant, ALOMY POST [1] | percentage damage caused to the plant, ALOMY PRE [1] | percentage damage caused to the plant, ECHCG POST [2] | percentage damage caused to the plant, ECHCG PRE [2] | percentage damage caused to the plant, SETFA POST [3] | percentage damage caused to the plant, SETFA PRE [3] | percentage damage caused to the plant, LOLPE POST [4] | percentage damage caused to the plant, LOLPE PRE [4] | percentage damage caused to the plant, AVEFA POST [5] | percentage damage caused to the plant, AVEFA PRE [5]

CC#Cc1cc(C)c(C2C(=O)CC3(CCN(C(=O)C(C)(C)C)CC3)CC2=O)c(C)c1 [Compound A12]
5 (5=80-100%): percentage damage caused to the plant, ALOMY POST [1] | percentage damage caused to the plant, ALOMY PRE [1] | percentage damage caused to the plant, ECHCG POST [2] | percentage damage caused to the plant, ECHCG PRE [2] | percentage damage caused to the plant, SETFA POST [3] | percentage damage caused to the plant, SETFA PRE [3] | percentage damage caused to the plant, LOLPE POST [4] | percentage damage caused to the plant, LOLPE PRE [4] | percentage damage caused to the plant, AVEFA POST [5] | percentage damage caused to the plant, AVEFA PRE [5]

CC#Cc1cc(OC)c(C2C(=O)CC3(CCN(C(C)=O)CC3)CC2=O)c(OC)c1 [Compound A14]
5 (5=80-100%): percentage damage caused to the plant, ALOMY POST [1] | percentage damage caused to the plant, ALOMY PRE [1] | percentage damage caused to the plant, ECHCG POST [2] | percentage damage caused to the plant, ECHCG PRE [2] | percentage damage caused to the plant, SETFA POST [3] | percentage damage caused to the plant, SETFA PRE [3] | percentage damage caused to the plant, LOLPE POST [4] | percentage damage caused to the plant, LOLPE PRE [4] | percentage damage caused to the plant, AVEFA POST [5] | percentage damage caused to the plant, AVEFA PRE [5]

CC#Cc1cc(C)c(C2C(=O)CC3(CCN(C(C)=O)CC3)CC2=O)c(OC)c1 [Compound A15]
5 (5=80-100%): percentage damage caused to the plant, ALOMY POST [1] | percentage damage caused to the plant, ALOMY PRE [1] | percentage damage caused to the plant, ECHCG POST [2] | percentage damage caused to the plant, ECHCG PRE [2] | percentage damage caused to the plant, SETFA POST [3] | percentage damage caused to the plant, SETFA PRE [3] | percentage damage caused to the plant, LOLPE POST [4] | percentage damage caused to the plant, LOLPE PRE [4] | percentage damage caused to the plant, AVEFA POST [5] | percentage damage caused to the plant, AVEFA PRE [5]

CC#Cc1cc(C)c(C2=C(O)CC3(CCN(C(C)=O)CC3)CC2=O)c(C)c1 [Compound A17]
5 (5=80-100%): percentage damage caused to the plant, ALOMY POST [1] | percentage damage caused to the plant, ALOMY PRE [1] | percentage damage caused to the plant, ECHCG POST [2] | percentage damage caused to the plant, ECHCG PRE [2] | percentage damage caused to the plant, SETFA POST [3] | percentage damage caused to the plant, SETFA PRE [3] | percentage damage caused to the plant, LOLPE POST [4] | percentage damage caused to the plant, LOLPE PRE [4] | percentage damage caused to the plant, AVEFA POST [5] | percentage damage caused to the plant, AVEFA PRE [5]

CC#Cc1cc(C)c(C2=C([O-])CC3(CCN(C(C)=O)CC3)CC2=O)c(C)c1.[Na+] [Compound A18]
5 (5=80-100%): percentage damage caused to the plant, ALOMY POST [1] | percentage damage caused to the plant, ALOMY PRE [1] | percentage damage caused to the plant, ECHCG POST [2] | percentage damage caused to the plant, ECHCG PRE [2] | percentage damage caused to the plant, SETFA POST [3] | percentage damage caused to the plant, SETFA PRE [3] | percentage damage caused to the plant, LOLPE POST [4] | percentage damage caused to the plant, LOLPE PRE [4] | percentage damage caused to the plant, AVEFA POST [5] | percentage damage caused to the plant, AVEFA PRE [5]

CC#Cc1cc(C)c(C2C(=O)CC3(CCN(C(=O)C(F)F)CC3)CC2=O)c(OC)c1 [Compound A19]
5 (5=80-100%): percentage damage caused to the plant, ALOMY POST [1] | percentage damage caused to the plant, ALOMY PRE [1] | percentage damage caused to the plant, ECHCG PRE [2] | percentage damage caused to the plant, SETFA POST [3] | percentage damage caused to the plant, SETFA PRE [3] | percentage damage caused to the plant, LOLPE POST [4] | percentage damage caused to the plant, LOLPE PRE [4] | percentage damage caused to the plant, AVEFA POST [5] | percentage damage caused to the plant, AVEFA PRE [5]

CC#Cc1cc(C)c(C2C(=O)CC3(CCN(C(=O)C(C)(C)C)CC3)CC2=O)c(OC)c1 [Compound A20]
5 (5=80-100%): percentage damage caused to the plant, ALOMY POST [1] | percentage damage caused to the plant, ALOMY PRE [1] | percentage damage caused to the plant, ECHCG POST [2] | percentage damage caused to the plant, ECHCG PRE [2] | percentage damage caused to the plant, SETFA POST [3] | percentage damage caused to the plant, SETFA PRE [3] | percentage damage caused to the plant, LOLPE POST [4] | percentage damage caused to the plant, LOLPE PRE [4] | percentage damage caused to the plant, AVEFA POST [5] | percentage damage caused to the plant, AVEFA PRE [5]

CC#Cc1cc(C)c(C2C(=O)CC3(CCN(C(=O)C(C)F)CC3)CC2=O)c(C)c1 (stereo not shown) [Compound A21]
5 (5=80-100%): percentage damage caused to the plant, ALOMY POST [1] | percentage damage caused to the plant, ALOMY PRE [1] | percentage damage caused to the plant, ECHCG POST [2] | percentage damage caused to the plant, ECHCG PRE [2] | percentage damage caused to the plant, SETFA POST [3] | percentage damage caused to the plant, SETFA PRE [3] | percentage damage caused to the plant, LOLPE POST [4] | percentage damage caused to the plant, LOLPE PRE [4] | percentage damage caused to the plant, AVEFA POST [5] | percentage damage caused to the plant, AVEFA PRE [5]

Source: patent US11542235B2, “Herbicidal 3-azaspiro[5.5] undecane-8, 10-dione compounds” (SYNGENTA PARTICIPATIONS AG, priority 2018, dated 2023)
